Source: patent publication US6432949B1, “Amide derivatives useful as inhibitors of the production of cytokines” (AstraZeneca AB, priority 1998, dated 2002)

Assays:
p38α = target: T1, p38α (Homo sapiens, UniProt Q16539); assay: In vitro enzyme assay, p38α isoform; assay type: biochemical; conditions: read-out: IC50 against p38α
T1 construct: c-myc (N); 6His (N); made in house; host or cells: E. coli (PET vectors)
Procedure: The ability of compounds of the invention to inhibit the enzyme p38 kinase was assessed. Activity of test compounds against each of the p38α and […] isoforms of the enzyme was determined.
Human recombinant MKK6 (GenBank Accesion Number G1209672) was isolated from Image clone 45578 (Genomics 1996, 33, 151) and utilised to produce protein in the form of a GST fusion protein in a pGEX vector using analogous procedures to those disclosed by J. Han et al., Journal of Biological Chemistry, 1996, 271, 2886-2891. p38α (GenBank Accession Number G529039) and p38β (GenBank Accession Number G1469305) were isolated by PCR amplification of human lymphoblastoid cDNA (GenBank Accession Number GM1416) and human foetal brain cDNA [synthesised from mRNA (Clontech, catalogue no. 6525-1) using a Gibco superscript cDNA synthesis kit] respectively using oligonucleotides designed for the 5′ and 3′ ends of the human p388α and p38β genes using analogous procedures to those described by J. Han et al., Biochimica et Biolphysica Acta, 1995, 1265, 224-227 and Y. Jiang et al., Journal of Biological Chemistry, 1996, 271, 17920-17926.
Both p38 protein isoforms were expressed in e coli in PET vectors. Human recombinant p38α and p38β isoforms were produced as 5′ c-myc, 6His tagged proteins. Both MKK6 and the p38 proteins were purified using standard protocols: the GST MKK6 was purified using a glutathione sepharose column and the p38 proteins were purified using nickel chelate columns.
The p38 enzymes were activated prior to use by incubation with MKK6 for 3 hours at 30° C. The unactivated coli-expressed MKK6 retained sufficient activity to fully activate both isoforns of p38. The activation incubate comprised p38α (10 μl of 10 mg/ml) or p38β (10 μl of 5 mg/ml) together with MKK6 (10 μl of 1 mg/ml), ‘Kinase buffer’ [100 μl; pH 7.4 buffer comprising Tris (50 mM), EGTA (0.1 mM), sodium orthovanadate (0.1 mM) and β-mercaptoethanol (0.1%)] and MgATP (30 μl of 50 mM Mg(OCOCH3)2 and 0.5 mM ATP). This produced enough activated p38 enzyme for 3 Microtiter plates.
Test compounds were solubilised in DMSO and 10 μl of a 1:10 diluted sample in ‘Kinase Buffer’ was added to a well in a Microtiter plate. For single dose testing, the compounds were tested at 10 μM. ‘Kinase Assay Mix’ [30 μl; comprising Myelin Basic Protein (Gibco BRL cat. no. 1322B-010; 1 ml of a 3.33 mg/ml solution in water), activated p38 enzyme (50 μl) and ‘Kinase Buffer’ (2 ml)] was then added followed by ‘Labelled ATP’ [10 μl; comprising 50 μM ATP, 0.1 μCi ^33P ATP (Amersham International cat. no. BF1000) and 50 mM Mg(OCOCH3)2]. The plates were incubated at room temperature with gentle agitation. Plates containing p38α were incubated for 90 min and plates containing p38β were incubated for 45 min. Incubation was stopped by the addition of 50 μl of 20% trichloroacetic acid (TCA). The precipitated protein was phosphorylated by p38 kinase and test compounds were assessed for their ability to inhibit this phosphorylation. The plates were filtered using a Canberra Packard Unifilter and washed with 2% TCA, dried overnight and counted on a Top Count scintillation counter.
Test compounds were tested initially at a single dose and active compounds were retested to allow IC50 values to be determined.

TNFα production [1] = assay: PBMC test: TNFα production by LPS-stimulated human peripheral blood mononuclear cells; assay type: cell-based
Procedure: The ability of compounds of this invention to inhibit TNFα production was assessed by using human peripheral blood mononuclear cells which synthesise and secrete TNFα when stimulated with lipopolysaccharide.
Peripheral blood mononuclear cells (PBMC) were isolated from heparinised (10 units/ml heparin) human blood by density centrifugation (Lymphoprep™; Nycomed). Mononuclear cells were resuspended in culture medium [RPMI 1640 medium (Gibco) supplemented with 50 units/ml penicillin, 50 μg/ml streptomycin, 2 mM glutamine and 1% heat-inactivated human AB serum (Sigma H-1 513)]. Compounds were solubilised in DMSO at a concentration of 50 mM, diluted 1:100 in culture medium and subsequently serial dilutions were made in culture medium containing 1% DMSO. PBMCs (2.4×10^5 cells in 160 μl culture medium) were incubated with 20 μl of varying concentrations of test compound (triplicate cultures) or 20 μl culture medium containing 1% DMSO (control wells) for 30 minutes at 37° C. in a humidified (5%CO2/95% air) incubator (Falcon 3072; 96 well flat-bottom tissue culture plates). 20 μl lipopolysaccharide [LPS E.Coli 0111:B4 (Sigma L4130), final concentration 10 μg/ml] solubilised in culture medium was added to appropriate wells. 20 μl culture medium was added to “medium alone” control wells. Six “LPS alone” and four “medium alone” controls were included on each 96 well plate. Varying concentrations of a known TNFα inhibitor were included in each test, i.e. an inhibitor of the PDE Type IV enzyme (for example see Semmler, J. Wachtel. H. and Endres, S., Int. J. Immunopharmac. (1993), 15(3), 409-413) or an inhibitor of proTNFα convertase (for example, see McGeehan, G. M. et al. Nature (1994) 370, 558-561). Plates were incubated for 7 hours at 37° C. (humidified incubator) after which 100 μl of the supernatant was removed from each well and stored at −70° C. (96 well round-bottom plates; Corning 25850). TNFα levels were determined in each sample using a human TNFα ELISA (see WO92/10190 and Current Protocols in Molecular Biology, vol 2 by Frederick M. Ausbel et al., John Wiley and Sons Inc.).
% inhibition=(LPS alone−medium alone)−(test concentration−medium alone)×100(LPS alone−medium alone)

TNFα production [2] = assay: Human Whole Blood (HWB) test: TNFα production by LPS-stimulated human whole blood; assay type: cell-based
Procedure: The ability of the compounds of this invention to inhibit TNFα production was also assessed in a human whole blood assay. Human whole blood secretes TNFα when stimulated with LPS. This property of blood forms the basis of an assay which is used as a secondary test for compounds which profile as active in the PBMC test.
Heparinised (10 units/ml) human blood was obtained from volunteers. 160 μl whole blood were added to 96 well round-bottom plates (Corning 25850). Compounds were solubilised and serially diluted in RPMI 1640 medium (Gibco) supplemented with 50 units/ml penicillin, 50 μg/ml streptomycin and 2 mM glutamine, as detailed above. 20 μl of each test concentration was added to appropriate wells (triplicate cultures). 20 μl of RPMI 1640 medium supplemented with antibiotics and glutamine was added to control wells. Plates were incubated for 30 minutes at 37° C. (humidified incubator), prior to addition of 2011 LPS (final concentration 10 μg/ml). RPMI 1640 medium was added to control wells. Six “LPS alone” and four “medium alone” controls were included on each plate. A known TNFα synthesis/secretion inhibitor was included in each test. Plates were incubated for 6 hours at 37° C. (humidified incubator). […] TNFα levels were measured by ELISA (see WO92/10190 and Current Protocols in Molecular Biology, vol 2 by Frederick M. Ausbel et al., John Wiley and Sons Inc.). […]

T1 sequence (Q16539 whole entry, canonical isoform): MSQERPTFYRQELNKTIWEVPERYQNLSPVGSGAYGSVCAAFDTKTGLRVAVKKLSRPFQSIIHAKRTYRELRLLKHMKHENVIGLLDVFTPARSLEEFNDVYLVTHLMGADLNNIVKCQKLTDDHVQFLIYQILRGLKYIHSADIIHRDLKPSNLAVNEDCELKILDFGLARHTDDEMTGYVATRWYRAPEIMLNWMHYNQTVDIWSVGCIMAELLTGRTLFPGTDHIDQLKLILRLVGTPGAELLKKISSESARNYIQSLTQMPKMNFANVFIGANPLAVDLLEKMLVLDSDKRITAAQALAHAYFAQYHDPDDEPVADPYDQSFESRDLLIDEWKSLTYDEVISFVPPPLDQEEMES

Question: `Cc1ccc(NC(=O)c2cccc(N(C)C)c2)cc1NC(=O)c1ccc(Cl)nc1` [Example 1, 6-chloro-N-[5-(3-dimethylaminobenzamido)-2-methylphenyl]pyridine-3-carboxamide] was tested. Which IC50 (p38α) did it give?
Answer: The IC50 was about 1000 nM.

Question: What about the IC50 (TNFα production [1]; Homo sapiens, PBMC) of the same molecule?
Answer: The IC50 was about 9000 nM.

Question: With `N#Cc1ccc(C(=O)Nc2ccc(Cl)c(NC(=O)c3ccc4ncccc4c3)c2)cc1` [Example 10, N-[2-chloro-5-(4-cyanobenzamido)phenyl]quinoline6-carboxamide] as the molecule, how does the IC50 (p38α) read?
Answer: The IC50 was about 50 nM.

Question: And the IC50 (TNFα production [1]; Homo sapiens, PBMC)?
Answer: The IC50 was about 2000 nM.

Question: What does the source list for “N-[5-(5-isoxazolylcarbonylamino)2-methylphenyl]quinoline-6-carboxamide [Example 14]”?
Answer: IC50 (p38α): ~100 nM; IC50 (TNFα production [1]): ~3000 nM

Question: `Cc1ccc(NC(=O)c2cccc(N(C)C)c2)cc1NC(=O)c1ccc2ncsc2c1` [Example 8, Compound No. 2, N-[5-(3dimethylaminobenzamido)-2-methylphenyl]benzothiazole-6-carboxamide] was tested. Which IC50 (p38α) did it give?
Answer: The IC50 was about 100 nM.

Question: What about the IC50 (TNFα production [1]; Homo sapiens, PBMC) of the same molecule?
Answer: Its IC50 is about 5000 nM.

Question: Which IC50 (TNFα production [2]) does the source give for `Cc1ccc(NC(=O)c2ccnc(N3CCOCC3)c2)cc1NC(=O)c1ccc(NCCC2CCCN2C)nc1` (stereo not shown) [Example 22(18), 6-[2-(1-methylpyrrolidin-2-yl)ethylamino]-N-[2-methyl-5(2-morpholinopyrid-4-ylcarbonylamino)phenyl]pyridine-3-carboxamide] here?
Answer: The IC50 was about 2000 nM.

Question: What about the IC50 (p38α) of the same molecule?
Answer: The IC50 was about 50 nM.

Question: And the IC50 (TNFα production [1]; Homo sapiens, PBMC)?
Answer: The IC50 was about 300 nM.

Question: With `Cc1ccc(NC(=O)c2ccnc(N3CCOCC3)c2)cc1NC(=O)c1ccc(NCCCN(C)C)nc1` [Example 22(14), 6-(3-dimethylaminopropylamino)-N-[2-methyl-5-(2-morpholinopyrid-4-ylcarbonylamino)phenyl]pyridine-3-carboxamide] as the molecule, how does the IC50 (TNFα production [2]) read?
Answer: Its IC50 is about 3000 nM.

Question: And the IC50 (p38α)?
Answer: Its IC50 is about 50 nM.
